Source: patent US11186591B2, “Difluoromethyl-aminopyridines and difluoromethyl-aminopyrimidines” (TORQUR AG, priority 2014, dated 2021)

Assays:
[1] = tested on: pPKB S473 in A2058 cells; assay: In-cell Western blot, pPKB S473; type: cell-based; details: Homo sapiens, 1 hour treatment, signal normalized to α-tubulin
[2] = tested on: pS6 S235/S236 in A2058 cells; assay: In-cell Western blot, pS6 S235/S236; type: cell-based; details: Homo sapiens, 1 hour treatment, signal normalized to α-tubulin
[3] = biological target: P110α (Homo sapiens, UniProt P42336); assay: P110α IC50 (Table 12, comparative biological activities); type: biochemical
P110α, sequence (P42336 whole entry, species assumed): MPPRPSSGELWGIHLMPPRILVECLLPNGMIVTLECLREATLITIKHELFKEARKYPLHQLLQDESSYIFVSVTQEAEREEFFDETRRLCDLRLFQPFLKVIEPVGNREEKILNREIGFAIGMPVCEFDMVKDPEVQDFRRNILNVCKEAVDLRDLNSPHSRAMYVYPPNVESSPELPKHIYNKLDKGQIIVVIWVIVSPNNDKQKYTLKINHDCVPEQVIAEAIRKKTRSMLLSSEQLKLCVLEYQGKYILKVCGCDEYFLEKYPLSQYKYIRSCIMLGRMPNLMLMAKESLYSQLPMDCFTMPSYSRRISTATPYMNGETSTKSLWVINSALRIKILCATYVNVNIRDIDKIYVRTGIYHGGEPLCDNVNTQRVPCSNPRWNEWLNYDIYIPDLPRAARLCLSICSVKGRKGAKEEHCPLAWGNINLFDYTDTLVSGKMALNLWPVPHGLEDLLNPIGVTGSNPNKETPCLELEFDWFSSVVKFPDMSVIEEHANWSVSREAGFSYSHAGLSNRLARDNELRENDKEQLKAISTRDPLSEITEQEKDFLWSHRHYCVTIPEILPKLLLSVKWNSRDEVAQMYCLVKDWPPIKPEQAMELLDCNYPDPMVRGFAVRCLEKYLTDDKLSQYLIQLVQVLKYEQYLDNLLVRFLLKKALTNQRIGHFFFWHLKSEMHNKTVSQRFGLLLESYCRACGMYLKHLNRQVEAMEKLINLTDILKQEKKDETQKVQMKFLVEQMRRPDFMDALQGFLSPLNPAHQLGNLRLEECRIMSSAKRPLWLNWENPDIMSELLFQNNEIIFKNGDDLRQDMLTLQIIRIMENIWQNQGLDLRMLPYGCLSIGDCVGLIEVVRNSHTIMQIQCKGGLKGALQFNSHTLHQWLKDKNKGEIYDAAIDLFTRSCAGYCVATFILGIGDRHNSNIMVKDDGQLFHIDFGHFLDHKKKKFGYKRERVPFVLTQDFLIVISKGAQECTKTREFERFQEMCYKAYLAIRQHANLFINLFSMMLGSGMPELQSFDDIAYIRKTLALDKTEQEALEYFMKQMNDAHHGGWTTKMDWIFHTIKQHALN
P110α, sequence (P27986 whole entry partner, species assumed): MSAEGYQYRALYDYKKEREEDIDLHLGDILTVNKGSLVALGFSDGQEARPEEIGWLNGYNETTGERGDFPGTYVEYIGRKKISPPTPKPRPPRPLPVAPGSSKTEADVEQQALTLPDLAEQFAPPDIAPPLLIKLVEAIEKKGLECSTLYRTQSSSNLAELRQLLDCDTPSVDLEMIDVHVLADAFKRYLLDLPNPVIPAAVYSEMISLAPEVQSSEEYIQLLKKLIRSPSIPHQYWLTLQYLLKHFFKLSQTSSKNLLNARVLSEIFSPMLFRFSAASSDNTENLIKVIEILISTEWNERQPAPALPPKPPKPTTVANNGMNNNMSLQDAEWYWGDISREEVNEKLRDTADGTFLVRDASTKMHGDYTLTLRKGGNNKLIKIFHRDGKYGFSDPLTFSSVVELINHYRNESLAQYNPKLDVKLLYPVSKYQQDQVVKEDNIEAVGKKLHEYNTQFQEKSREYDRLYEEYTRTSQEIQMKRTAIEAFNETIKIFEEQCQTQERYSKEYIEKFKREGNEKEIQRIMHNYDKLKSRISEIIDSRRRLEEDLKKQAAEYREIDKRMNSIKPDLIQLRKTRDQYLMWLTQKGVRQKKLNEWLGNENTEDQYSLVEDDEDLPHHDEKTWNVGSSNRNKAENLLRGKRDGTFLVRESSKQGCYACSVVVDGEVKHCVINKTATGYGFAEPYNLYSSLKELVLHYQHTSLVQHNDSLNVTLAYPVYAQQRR

| IC50 [3] [nM] | Compound | IC50 ([1]; A2058, 1 h) [nM] | IC50 ([2]; A2058, 1 h) [nM] | IC50 [1] [nM] | IC50 [2] [nM] |
| --- | --- | --- | --- | --- | --- |
|  | Nc1cc(C(F)(F)F)c(-c2nc(N3CCOCC3)nc(N3CCOCC3)n2)cn1 | 149 | 340 |  |  |
|  | C[C@H]1COCCN1c1nc(-c2cnc(N)cc2C(F)(F)F)nc(N2CCOC[C@@H]2C)n1 | 255 | 433 |  |  |
|  | C[C@H]1COCCN1c1nc(-c2cnc(N)nc2C(F)(F)F)nc(N2CCOC[C@@H]2C)n1 | 118 | 224 |  |  |
|  | C[C@@H]1COCCN1c1nc(-c2cnc(N)cc2C(F)F)nc(-c2cnc(N)cc2C(F)F)n1 [Example 43, 5-[4-[6-amino-4-(difluoromethyl)-3-pyridyl]-6-[(3R)-3-methylmorpholin-4-yl]-1,3,5-triazin-2-yl]-4-(difluoromethyl)pyridin-2-amine] |  |  | 383 | 154 |
|  | Nc1ncc(-c2nc(N3CCOCC3)nc(N3CCOCC3=O)n2)c(C(F)F)n1 [Example 36, 4-[4-[2-amino-4-(difluoromethyl)pyrimidin-5-yl]-6-morpholino-1,3,5-triazin-2-yl]morpholin-3-one] | 99 | 153 |  |  |
|  | Nc1cc(C(F)(F)F)c(-c2nc(N3CCOCC3)nc(N3CCSCC3)n2)cn1 [reference compound] | 311 | 559 |  |  |
|  | Nc1ncc(-c2nc(N3CCNCC3)nc(N3CCOCC3)n2)c(C(F)(F)F)n1 [reference compound] | 116 | 416 |  |  |
|  | Nc1ncc(-c2nc(N3CCOCC3)nc(N3CCSCC3)n2)c(C(F)(F)F)n1 [reference compound] | 343 | 996 |  |  |
|  | Nc1ncc(-c2nc(N3CCOCC3)cc(N3CCOCC3)n2)c(C(F)F)n1 |  | 147 |  |  |
|  | C[C@H]1COCCN1c1nc(-c2cnc(N)nc2C(F)F)nc(N2CCOC[C@@H]2C)n1 |  | 97 |  |  |
| 161 | C[C@H]1OC(=O)N(c2nc(-c3cnc(N)nc3C(F)F)nc(N3CCOCC3)n2)[C@H]1CO | 100 |  |  |  |
|  | Nc1cc(C(F)F)c(-c2nc(N3CCOCC3)nc(N3CCOCC3=O)n2)cn1 [Example 35, 4-[4-[6-amino-4-(difluoromethyl)-3-pyridyl]-6-morpholino-1,3,5-triazin-2-yl]morpholin-3-one] | 207 | 229 |  |  |
| 1860 | C[C@H]1OC(=O)N(c2nc(-c3cnc(N)nc3C(F)(F)F)nc(N3CCOCC3)n2)[C@H]1CO [reference compound] | 689 |  |  |  |
|  | C[C@H]1COCCN1c1nc(-c2cnc(N)cc2C(F)F)nc(N2CCOC[C@@H]2C)n1 | 155 | 215 |  |  |
|  | Nc1cc(C(F)(F)F)c(-c2nc(N3CCNCC3)nc(N3CCOCC3)n2)cn1 [reference compound] | 302 | 743 |  |  |
|  | C[C@H]1COCCN1c1cc(-c2cnc(N)nc2C(F)F)nc(N2CCOCC2)n1 | 77 | 146 |  |  |
